Results: ChEMBL document CHEMBL1148138, “New eremophilenolides from Ligulariopsis shichuana” (2002)

Experiments:
[1] = tested on: Bacillus subtilis; experiment: Antibacterial activity against Bacillus subtilis at 100 ug/mL after 24 hrs by cup-plate method; assay type: functional; conditions: read-out: Diameter of inhibition zone
[2] = tested on: Escherichia coli; experiment: Antibacterial activity against Escherichia coli at 100 ug/mL after 24 hrs by cup-plate method; assay type: functional; conditions: read-out: Diameter of inhibition zone

Row | SMILES | zone of inhibition at 100 µg/mL [1] | zone of inhibition at 100 µg/mL [2]
1 | C/C=C(/C)C(=O)O[C@@H]1[C@@]23O[C@@H]2C[C@H](OC(C)=O)[C@H](C)[C@@]3(C)CC2=C(C)C(=O)O[C@@]21O | 13 mm | 13 mm
2 | CC(C)=CC(=O)O[C@H]1C[C@H]2O[C@]23C[C@@]2(O)OC(=O)C(C)=C2C[C@]3(C)[C@H]1C | 16 mm | 13 mm
3 | O=C(N[C@H](CO)[C@H](O)c1ccc([N+](=O)[O-])cc1)C(Cl)Cl [CHLORAMPHENICOL] | 16 mm | 16 mm
